In US6875578B2, “System for cell-based screening” (priority 1997, dated 2005):

How the values were obtained:
[1] = tested on: mitochondrial potential in hepatocytes; assay: JC-1 mitochondrial potential measurement, hepatocytes; assay type: cell-based, rat; details: various concentrations, nearly complete within seconds to minutes
From the text: (§1) We have utilized a positively charged cyanine dye, JC-1 (Molecular Probes, Eugene, Oreg.), which diffuses into the cell and readily partitions into the mitochondrial membrane, for measurement of mitochondrial potential. The photophysics of JC-1 are such that when the probe partitions into the mitochondrial membrane and it experiences an electrical potential >140 mV, the probe aggregates and its spectral response is shifted to the red. At membrane potential values <140 mV, JC-1 is primarily monomeric and its spectral response is shifted toward the blue. Therefore, the ratio of two emission wavelengths (645 nm and 530 nm) of JC-1 partitioned into mitochondria provides a sensitive and continuous measure of mitochondrial membrane potential.
(§2) • 1. […] (2 times, 150 μl/well), the toxins were added if required, and the entire plate was scanned in a plate reader. The JC-1 monomer was measured optimally with a 485 nm excitation/530 nm emission wavelength filter set, and the aggregates were best measured with a 590 nm excitation/645 nm emission wavelength set. […]
(§3) The mitochondrial potential within several types of living cells, and the effects of toxins on the potential were measured using the fluorescence ratio Em 645 (590)/Em 530 (485) (excitation wavelengths in parentheses). For example, we measured the effect of 10 μM valinomycin on the mitochondrial potential within LLCPK cells (pig epithelia). […]

[2] = tested on: mitochondrial potential within LLCPK cells; assay: JC-1 mitochondrial potential measurement, LLCPK cells; assay type: cell-based, pig; details: 10 μM valinomycin, within seconds of treatment
From the text: as §1, §2, §3

CC(C)[C@@H]1NC(=O)[C@H](C)OC(=O)[C@@H](C(C)C)NC(=O)[C@@H](C(C)C)OC(=O)[C@H](C(C)C)NC(=O)[C@H](C)OC(=O)[C@@H](C(C)C)NC(=O)[C@@H](C(C)C)OC(=O)[C@H](C(C)C)NC(=O)[C@H](C)OC(=O)[C@@H](C(C)C)NC(=O)[C@@H](C(C)C)OC1=O [Valinomycin]
changes in mitochondrial potential [1]: sensitive to valinomycin | reduction in mitochondrial potential (fluorescence ratio Em 645/Em 530 of JC-1) [2]: approximately 50%
